Data: patent US12600732B2, “Bifunctional compounds for degrading BTK via ubiquitin proteosome pathway” (NURIX THERAPEUTICS, INC., priority 2019, dated 2026)

Legend:
[1] = tested on: TMD8 cells; test: Cell viability assay (CellTiter-Glo), TMD8 cells; conditions: for EC50: Homo sapiens, TMD8, 72 h; for EMAX (% viable cells): TMD8 cells, treatment time 72 h
Description: (§1) Cell viability was determined using CellTiter-Glo 2.0 Luminescent Cell Viability Assay (Promega, G9242), which quantitates the amount of ATP present as a proxy for the number of viable cells in culture. Cells were plated with densities between 2000-4000 cells per well in 96-well plates. […] CellTiter-Glo reagent was added to cells at a dilution of 1:20, and the plate was incubated ten minutes at room temperature prior to reading the luminescence signal using an EnVision plate reader. Controls included cells treated with DMSO and wells that contained no cells, only media. Background luminescence signal was determined by control wells containing no cells, only media, and was then subtracted from all sample wells. Luminescence values were then normalized to DMSO-treated wells and reported at proportion viable cells.
Here, the ability of CTMs to affect viability in BTK-dependent cell lines was assessed.

[2] = target: T1, BTK (Mus musculus, UniProt P35991); test: In vivo degradation of BTK in mouse PD experiments with oral dosing
T1 construct: from tissue; host or cells: mouse blood B cells / splenocytes (CD-1 or BALB/c)
T1 sequence (P35991 whole entry): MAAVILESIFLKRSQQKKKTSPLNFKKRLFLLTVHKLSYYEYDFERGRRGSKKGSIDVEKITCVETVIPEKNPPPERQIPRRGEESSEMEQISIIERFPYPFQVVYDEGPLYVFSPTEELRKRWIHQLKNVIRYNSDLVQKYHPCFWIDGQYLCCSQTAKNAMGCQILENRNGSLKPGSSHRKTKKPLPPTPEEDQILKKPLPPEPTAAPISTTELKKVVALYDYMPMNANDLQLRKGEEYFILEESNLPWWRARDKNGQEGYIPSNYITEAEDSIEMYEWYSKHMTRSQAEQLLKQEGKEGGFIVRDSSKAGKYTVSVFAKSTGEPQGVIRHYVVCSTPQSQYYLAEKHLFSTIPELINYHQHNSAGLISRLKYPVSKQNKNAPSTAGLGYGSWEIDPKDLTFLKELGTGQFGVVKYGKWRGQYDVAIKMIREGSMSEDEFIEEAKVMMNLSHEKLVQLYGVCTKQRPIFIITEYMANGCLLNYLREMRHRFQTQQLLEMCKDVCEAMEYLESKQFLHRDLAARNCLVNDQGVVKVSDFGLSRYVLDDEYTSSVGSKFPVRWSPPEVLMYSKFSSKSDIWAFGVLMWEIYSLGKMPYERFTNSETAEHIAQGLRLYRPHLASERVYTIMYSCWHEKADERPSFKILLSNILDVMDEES
Description: A method of determining the pharmacodynamic profile of BTK degraders was performed by dosing either CD-1 or BALB/c mice with CTM. The CTM was prepared in a suitable formulation and was administered via oral gavage (PO) at a suitable dose level and frequency as informed by prior pharmacokinetic and tolerability studies. Following administration of CTM, BTK levels in blood or splenocytes are measured using flow cytometry or HTRF. For assessment of BTK levels via flow cytometry, either whole blood or splenocytes were first treated with ACK RBC lysis buffer to facilitate lysing of red blood cells. Remaining cells were then stained with fluorophore-conjugated antibodies against CD45, TCR beta and CD45R (B220). Cell pellets were washed with 1×PBS, fixed, and permeabilized for twenty-four hours with Foxp3/Transcription Factor Fixation/Permeabilization Kit. Cells were then stained intracellularly with unconjugated BTK antibody and detected with a fluorophore-conjugated secondary antibody. Stained cells were run on an Attune N×T Acoustic Focusing Flow Cytometer (Thermo-Fisher A29004), and data was analyzed using FlowJo (v10.5.3) and GraphPad Prism (v7.00) software. Lymphocytes were gated for B cells defined as CD45+ TCR beta−B220+ and T cells as CD45+ TCR beta+B220−. The BTK geometric mean fluorescence intensity (MFI) was calculated for B and T cells. Percent BTK degradation for each compound-treated sample was calculated using the equation described below: % Degradation=100*(Treated sample B cell BTK MFI-treated sample T cell BTK MFI)/Vehicle B cell BTK MFI-Vehicle T cell BTK MFI)
This example evaluates in vivo activity of BTK CTMs via a direct mouse PD measurement following oral dosing
Screens were completed at 90 mg/kg for six hours, and then changed to lower doses/longer time points after seeing strong BTK degradation activity with an initial set of compounds. This assay was useful in selecting compounds for in vivo efficacy experiments.

[3] = tested on: TMD8 C481S cells; test: Cell viability assay (CellTiter-Glo), TMD8 C481S cells; conditions: for EC50: Homo sapiens, TMD8, 72 h; for EMAX (% viable cells): TMD8 C481S cells, treatment time 72 h
Description: as §1

[4] = oral dose 90 mg/kg, 6 h, splenocytes, HTRF
[5] = oral dose 3 mg/kg, 6 h, blood, flow cytometry
[6] = oral dose 30 mg/kg, 24 h, blood, flow cytometry
[7] = oral dose 30 mg/kg, 24 h, splenocytes, HTRF

% BTK Remaining [2, 4]	SMILES	EC50 [1]	EMAX (% viable cells) [1]	EC50 [3]	EMAX (% viable cells) [3]	also measured
5%	CN1CCN([C@@H]2CCCN(c3cnc(C(N)=O)c(Nc4ccc(N5CCN(C[C@H]6CCN(c7ccc8c(c7)C(=O)N(C7CCC(=O)NC7=O)C8=O)C6)CC5)cc4)n3)C2)C1=O (stereo partly shown) [Compound 42]	0.217 nM	40%	1.96 nM	57%	
	CN1CCN([C@@H]2CCCN(c3cnc(C(N)=O)c(Nc4ccc(N5CCC6(CCN(Cc7ccc8c(c7)CN([C@@H]7CCC(=O)NC7=O)C8=O)CC6)CC5)cc4)n3)C2)C1=O [Compound 210]	5.61 nM	32%	5.29 nM	40%	
	CN1CCN([C@@H]2CCCN(c3cnc(C(N)=O)c(Nc4cnn(C5CN(CC6CCN(c7ccc8c(c7)C(=O)N([C@@H]7CCC(=O)NC7=O)C8=O)CC6)C5)c4)n3)C2)C1=O [Compound 209]	7.41 nM	49%	55.2 nM	44%	
1%	CN1CCN([C@@H]2CCCN(c3cnc(C(N)=O)c(Nc4ccc(C5CCN(CC6CN(c7ccc8c(c7)C(=O)N(C7CCC(=O)NC7=O)C8=O)C6)CC5)cc4)n3)C2)C1=O (stereo partly shown) [Compound 54]	0.61 nM	13%	7.11 nM	6%	
<1%	CN1CCN([C@@H]2CCCN(c3cnc(C(N)=O)c(Nc4ccc(N5CCN(CC6CCN(c7ccc8c(c7)C(=O)N(C7CCC(=O)NC7=O)C8=O)CC6)CC5)cc4)n3)C2)C1=O (stereo partly shown) [Compound 49]	0.61 nM	28%	3.86 nM	23%	
	Cn1cc(Nc2nc(N3CCC[C@@H](N4CC5(CN(CC6CCN(c7ccc8c(c7)C(=O)N(C7CCC(=O)NC7=O)C8=O)CC6)C5)OC4=O)C3)cnc2C(N)=O)cn1 (stereo partly drawn) [compound 211, 5-[(3R)-3-[2-({1-[2-(2,6-dioxopiperidin-3-yl)-1,3-dioxoisoindol-5-yl]piperidin-4-yl}methyl)-6-oxo-5-oxa-2,7-diazaspiro[3.4]octan-7-yl]piperidin-1-yl]-3-[(1-methylpyrazol-4-yl)amino]pyrazine-2-carboxamide]	11.7 nM	30%	113 nM	28%	% BTK Remaining [2, 5]: 74%
	Cn1cc(Nc2nc(N3CCC[C@@H](N4CC5(CN(C6CCN(c7ccc8c(c7)C(=O)N([C@H]7CCC(=O)NC7=O)C8=O)CC6)C5)OC4=O)C3)cnc2C(N)=O)cn1 [Compound 212]	15.1 nM	42%	63 nM	44%	% BTK Remaining [2, 5]: 78%
	CN1CCN([C@H]2CCCN(c3cnc(C(N)=O)c(Nc4ccc(N5CCC6(CCN(c7ccc8c(c7)C(=O)N(C7CCC(=O)NC7=O)C8=O)CC6)CC5)nc4)n3)C2)C1=O (stereo partly shown) [Compound 80]	45.2 nM	45%	125 nM	78%	% BTK Remaining ([2]; oral dose 0.3 mg/kg, 24 h, blood, flow cytometry): 88%; % BTK Remaining ([2]; oral dose 0.3 mg/kg, 24 h, splenocytes, flow cytometry): 115%; % BTK Remaining [2, 5]: 96%; % BTK Remaining ([2]; oral dose 3 mg/kg, 24 h, blood, flow cytometry): 77%; % BTK Remaining ([2]; oral dose 3 mg/kg, 24 h, splenocytes, flow cytometry): 111%; % BTK Remaining ([2]; oral dose 10 mg/kg, 24 h, blood, flow cytometry): 59%; % BTK Remaining ([2]; oral dose 10 mg/kg, 24 h, splenocytes, flow cytometry): 74%; % BTK Remaining [2, 6]: 52%; % BTK Remaining ([2]; oral dose 30 mg/kg, 24 h, splenocytes, flow cytometry): 69%; % BTK Remaining ([2]; oral dose 90 mg/kg, 24 h, blood, flow cytometry): 48%; % BTK Remaining ([2]; oral dose 90 mg/kg, 24 h, splenocytes, flow cytometry): 65%
15%	CN1CCN([C@@H]2CCCN(c3cnc(C(N)=O)c(Nc4ccc(C5CCN(CCC6CCN(c7ccc8c(c7)C(=O)N(C7CCC(=O)NC7=O)C8=O)CC6)CC5)cc4)n3)C2)C1=O (stereo partly shown) [Compound 41]					
8%	CN1CCN([C@@H]2CCCN(c3cnc(C(N)=O)c(Nc4ccc(C5CCN(CCC6CN(c7ccc8c(c7)C(=O)N(C7CCC(=O)NC7=O)C8=O)C6)CC5)cc4)n3)C2)C1=O (stereo partly shown) [Compound 45]					
3%	CN1CCN([C@@H]2CCCN(c3cnc(C(N)=O)c(Nc4ccc(N5CCN(CC6CN(c7ccc8c(c7)C(=O)N(C7CCC(=O)NC7=O)C8=O)C6)CC5)cc4)n3)C2)C1=O (stereo partly shown) [Compound 60]	0.97 nM	20%	8.37 nM	26%	
7%	CN1CCN([C@@H]2CCCN(c3cnc(C(N)=O)c(Nc4ccc(N5CCN(C[C@@H]6CCN(c7ccc8c(c7)C(=O)N(C7CCC(=O)NC7=O)C8=O)C6)CC5)cc4)n3)C2)C1=O (stereo partly shown) [Compound 59]	0.15 nM	31%	2.03 nM	52%	
	Cc1cc(Nc2nc(N3CCC[C@@H](N4CCC5(CCN(CC6CCN(c7ccc8c(c7)C(=O)N(C7CCC(=O)NC7=O)C8=O)CC6)CC5)C4=O)C3)cnc2C(N)=O)sn1 (stereo partly drawn) [compound 205, 5-[(3R)-3-[8-({1-[2-(2,6-dioxopiperidin-3-yl)-1,3-dioxoisoindol-5-yl]piperidin-4-yl}methyl)-1-oxo-2,8-diazaspiro[4.5]decan-2-yl]piperidin-1-yl]-3-[(3-methyl-1,2-thiazol-5-yl)amino]pyrazine-2-carboxamide]					% BTK Remaining [2, 7]: 66%
	CN1CCN([C@@H]2CCCN(c3cnc(C(N)=O)c(Nc4ccc(C5CN(C[C@H]6CCN(c7ccc8c(c7)C(=O)N(C7CCC(=O)NC7=O)C8=O)C6)C5)cc4)n3)C2)C1=O (stereo partly shown) [Compound 35]					% BTK Remaining ([2]; oral dose 1 mg/kg, 6 h, splenocytes, HTRF): 74%
	CN1CCN([C@@H]2CCCN(c3cnc(C(N)=O)c(Nc4ccc(C5CCN(C[C@H]6CCN(c7ccc8c(c7)C(=O)N([C@@H]7CCC(=O)NC7=O)C8=O)C6)CC5)nc4)n3)C2)C1=O [Compound 207]			0.009 nM	54%	% BTK Remaining [2, 7]: 46%
	CN1CCN([C@@H]2CCCN(c3cnc(C(N)=O)c(Nc4ccc(C5CCN(C[C@H]6CCN(c7ccc8c(c7)CN(C7CCC(=O)NC7=O)C8=O)C6)CC5)cc4)n3)C2)C1=O (stereo partly shown) [Compound 117]					% BTK Remaining [2, 6]: 49%
80%	CN1CCN([C@@H]2CCCN(c3cnc(C(N)=O)c(Nc4ccc(C5CCN(c6ccc7c(c6)C(=O)N(C6CCC(=O)NC6=O)C7=O)CC5)cc4)n3)C2)C1=O (stereo partly shown) [Compound 47]	3.83 nM	39%	43.5 nM	61%	
	Cn1c(-c2ccc(N3CCC(CN4CCC(c5ccc(Nc6nc(N7CCC[C@H](N8CCCC8=O)C7)cnc6C(N)=O)cc5)CC4)CC3)cc2)nn(C2CCC(=O)NC2=O)c1=O (stereo partly shown) [Compound 143]					% BTK Remaining [2, 6]: 37%
	Cn1cc(Nc2nc(N3CCC[C@@H](N4CCC5(CN(CC6CCN(c7ccc8c(=O)n(C9CCC(=O)NC9=O)ccc8c7)CC6)C5)C4=O)C3)cnc2C(N)=O)cn1 (stereo partly shown) [Compound 145]					% BTK Remaining [2, 6]: 100%
	CN1CCN([C@@H]2CCCN(c3cnc(C(N)=O)c(Nc4ccc(C5CCN(C[C@H]6CCN(c7ccc8c(=O)n(C9CCC(=O)NC9=O)ccc8c7)C6)CC5)cc4)n3)C2)C1=O (stereo partly shown) [Compound 115]	2.74 nM	13%	1.93 nM	16%	% BTK Remaining [2, 6]: 30%
	NC(=O)c1ncc(N2CCC3(COC3)C2)nc1Nc1ccc(C2CCN(C[C@H]3CCN(c4ccc5c(c4)C(=O)N(C4CCC(=O)NC4=O)C5=O)C3)CC2)cc1 (stereo partly shown) [Compound 176]					% BTK Remaining [2, 7]: 48%
